Patent US12226443B2, “Polyphenol composition and method of its use and manufacture in the treatment of metabolic disorders” (Vidya Herbs, Inc., priority 2018, dated 2025)

Test: DPPH scavenging assay
Details: composition at 100 μg/ml
Description: The free radical scavenging capacity of the composition was determined using DPPH scavenging assay (Braca et al. 2001). DPPH solution was prepared in 95% methanol. Freshly prepared DPPH solution was taken in test tubes and different concentration of the composition (20-100 μg/mL) were added and incubated for 20 min. The absorbance was read at 517 nm using a spectrophotometer. Blank was prepared containing the same volume of reaction mixture without any test samples. The percentage of scavenging was calculated using formula: % Scavenging=Ac−As/Ac×100 Where AC was the absorbance of the control (blank without extract) and As was the absorbance in the presence of the extract.

## O=C1O[C@H]([C@@H](O)CO)C(O)=C1O [ascorbic acid]
  DPPH radical scavenging, maximum activity: 96.71%
